The record followed here is patent US20180256541A1, “COMPOSITIONS HAVING ANTI-FUGETACTIC PROPERTIES FOR TREATMENT OF CANCER” (THE GENERAL HOSPITAL CORPORATION DBA MASSACHUSETTS GENERAL …, priority 2015, published 2018).

Assay [1] has as its system human CD3+ T cells. The following applies: T cells pre-incubated with 0.01 μM to 10 mM AMD3100; tumor cells in Transwell; harvest after 3 h. On the procedure: For quantitative transmigration assays, purified human CD3^+ T cells (approximately 2×10^4 cells) are added to the upper chamber of a Transwell® insert in each well, to a total volume of 150 μl of Iscove's modified medium.
To determine the anti-fugetactic concentration of AMD3100, the T cells are incubated with 0.01 μM to 10 mM AMD3100 prior to addition to the chamber.
Cells are harvested from the lower chamber after 3 h, and cell counts are performed using a hemocytometer.

Assay [2] has as its system human CD3+ T cells. Particulars: CI of 1.0 is the control, triplicate wells. How it is done:
Freshly prepared and purified human CD3^+ T cells were prepared from healthy donor peripheral blood. 20,000 T cells were loaded into the upper chamber of the Transwell in control, chemotactic or fugetactic settings with AMD3100 at concentrations between 0.1 μM and 10 μM. Migrated cells were counted in the lower chamber and migration quantitated as previously described. Vianello et al. The Journal of Immunology, 2006, 176: 2902-2914; Righi et al., Cancer Res.; 71(16); 5522-34, each of which is incorporated herein in its entirety.
We saw clear evidence of binary or bimodal chemotactic (FIG. 1; CI 2.3 at 1 μM) and fugetactic (FIG. 2; CI=1.6 at 0.1 μM) responses of human CD3+ T cells to AMD3100 (where a CI or chemotactic index of 1.0 is the control). All wells were run in triplicate.

As for `c1cc(CN2CCCNCCNCCCNCC2)ccc1CN1CCCNCCNCCCNCC1` [AMD3100, 1,1′-[1,4-phenylenebis(methylene)]bis [1,4,8,11-tetraazacyclotetradecane]], the “effect on T cell migration (anti-fugetactic at lower, fugetactic at higher concentrations)” value in the assay on human CD3+ T cells [1] was “bimodal effect”. Moreover, the “CI (chemotactic index), chemotactic response” value in the assay on human CD3+ T cells [2] (chemotactic setting, AMD3100 at 1 μM, FIG. 1) amounted to 2.3. The “CI (chemotactic index), fugetactic response” value with human CD3+ T cells [2] (fugetactic setting, AMD3100 at 0.1 μM, FIG. 2) is given as 1.6.
